Laboratory results: patent publication US20080051387A1, “TETRAHYDROPYRIDO[3,4-D]PYRIMIDINES AND RELATED ANALOGUES” (priority 2006, published 2008)

Molecular target: T1, chimeric human H3 receptor (Homo sapiens, UniProt Q9Y5N1)
T1 construct: rat Galpha-i2 (Gnai2, rat); made in house; host or cells: Sf9 insect cells (baculovirus); P2 membranes
Test: Chimeric human H3 receptor GTP binding assay (agonist-stimulated GTP-gamma35S binding, Example 7)
Format: biochemical
Conditions: P2 membranes of Sf9 cells, 1 μM histamine as agonist, Ki from IC50 by Cheng-Prusoff; read-out: Ki
Text: This Example illustrates a representative assay for evaluating agonist-stimulated GTP-gamma^35S binding (“GTP binding”) activity. […] This agonist-stimulated GTP binding activity can also be used to detect partial agonism mediated by antagonist compounds. A compound analyzed in this assay is referred to herein as a “test compound.”
Four independent baculoviral stocks (one directing the expression of the chimeric human H3 receptor and three directing the expression of each of the three subunits of a heterotrimeric G-protein) are used to infect a culture of Sƒ9 cells as described above. P2 membranes are prepared as described above, and agonist-stimulated GTP binding on the P2 membranes is assessed using histamine (Sigma Chemical Co., St. Louis, Mo.) as agonist in order to ascertain that the receptor/G-protein-alpha-beta-gamma combination(s) yield a functional response as measured by GTP binding. P2 membranes are resuspended by Dounce homogenization (tight pestle) in GTP binding assay buffer (50 mM Tris pH 7.4, 120 mM NaCl, 5 mM MgCl2, 2 mM EGTA, 1 mg/ml BSA, 0.2 mg/ml bacitracin, 0.02 mg/ml aprotinin, 0.01 mg/ml saponin, 10 μM GDP) and added to assay tubes at a concentration of 35 μg protein/reaction tube. After adding increasing doses of histamine at concentrations ranging from 10-12 M to 10^−5 M, reactions are initiated by the addition of 125 pM GTP-gamma^35S (PERKIN ELMER; Boston, Mass.) with a final assay volume of 0.20 ml. In competition experiments, non-radiolabeled test compounds are added to separate reactions at concentrations ranging from 10^−10 M to 10^−6 M along with 1 μM histamine to yield a final volume of 0.20 ml.
Neutral antagonists are antagonists that are substantially free of inherent agonist activity, and include those test compounds that reduce the histamine-stimulated GTP binding activity towards, but not below, baseline levels. In contrast, in the absence of added histamine, inverse agonists reduce the GTP binding activity of the receptor-containing membranes below baseline.
After a 60-min incubation at room temperature, reactions are terminated by vacuum filtration over WHATMAN GF/C filters (pre-soaked in wash buffer, 0.1% BSA) followed by washing with ice-cold wash buffer (50 mM Tris pH 7.4, 120 mM NaCl). The amount of receptor-bound (and thereby membrane-bound) GTP-gamma^35S is determined by measuring the filter-bound radioactivity, preferably by liquid scintillation spectrometry of the washed filters. Non-specific binding is determined in parallel assays including 10 μM unlabeled GTP-gammaS and typically represents less than 5 percent of total binding. Data is expressed as percent above basal (baseline). The results of GTP binding experiments are analyzed using SIGMAPLOT software (SPSS Inc., Chicago, Ill.). IC50 values are calculated by non-linear regression analysis of dose-response curves using Kaleidograph (Synergy Software, Reading, Pa.).
Alternatively the data is analyzed as follows. First, the average bound radioactivity from negative control wells (no agonist) is subtracted from the bound radioactivity detected for each of the other experimental wells. Second, average bound radioactivity is calculated for the positive control wells (agonist wells). Then, percent inhibition for each compound tested is calculated using the equation: [formula]
Calculated IC50 values are converted to Ki values by the Cheng-Prusoff correction (Cheng and Prusoff (1973) Biochem. Pharmacol. 22(23):3099-3108). Accordingly, the following equation: Ki=IC50/(1+[L]/EC50) is used, where [L] is the histamine concentration in the GTP binding assay, and EC50 is the concentration of histamine producing a 50% response, as determined by a dose-response analysis using concentrations of histamine ranging from 10^−10 M to 10^−6 M. […]

T1 sequence (Q9Y5N1 with tags, fused parts or gaps): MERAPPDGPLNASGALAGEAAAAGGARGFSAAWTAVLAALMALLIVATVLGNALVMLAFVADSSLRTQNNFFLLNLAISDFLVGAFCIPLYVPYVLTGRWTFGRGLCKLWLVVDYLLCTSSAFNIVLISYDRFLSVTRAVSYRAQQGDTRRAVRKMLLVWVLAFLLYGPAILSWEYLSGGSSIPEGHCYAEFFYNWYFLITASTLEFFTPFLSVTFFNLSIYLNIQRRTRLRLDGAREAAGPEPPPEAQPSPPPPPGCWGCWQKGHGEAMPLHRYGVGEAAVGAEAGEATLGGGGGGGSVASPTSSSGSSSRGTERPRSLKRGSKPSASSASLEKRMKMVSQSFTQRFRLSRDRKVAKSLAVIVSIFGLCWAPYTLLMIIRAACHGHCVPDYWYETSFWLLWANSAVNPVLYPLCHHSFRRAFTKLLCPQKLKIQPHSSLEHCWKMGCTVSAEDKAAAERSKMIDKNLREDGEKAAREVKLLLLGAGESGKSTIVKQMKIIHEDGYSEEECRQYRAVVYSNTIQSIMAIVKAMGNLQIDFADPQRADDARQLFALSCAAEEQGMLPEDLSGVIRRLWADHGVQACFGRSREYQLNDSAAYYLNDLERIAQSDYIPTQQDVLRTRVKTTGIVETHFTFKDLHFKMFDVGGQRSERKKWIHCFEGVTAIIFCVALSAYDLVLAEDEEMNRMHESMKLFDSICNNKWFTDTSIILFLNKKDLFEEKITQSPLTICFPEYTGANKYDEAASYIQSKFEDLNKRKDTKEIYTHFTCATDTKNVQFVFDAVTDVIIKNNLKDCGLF

**Q.** `CC(=O)c1ccc(N2CCc3nc(N4CCN(C5CCC5)CC4)ncc3C2)nc1` [Compound 610, 1-{6-[2-(4-cyclobutylpiperazin-1-yl)-7,8-dihydropyrido[4,3-d]pyrimidin-6(5H)-yl]pyridin-3-yl}ethanone] was tested. Which Ki did it give?
**A.** < 1000 nM

**Q.** `c1ccc(CN2CCc3nc(N4CCN(C5CCC5)CC4)ncc3C2)cc1` [Compound 605, 6-benzyl-2-(4-cyclobutylpiperazin-1-yl)-5,6,7,8-tetrahydropyrido[4,3-d]pyrimidine] was tested. Which Ki did it give?
**A.** < 1000 nM

**Q.** How did the Ki turn out when `c1nc2c(c(N3CCN(C4CCC4)CC3)n1)CCNCC2` [Compound 144, 4-(4-cyclobutylpiperazin-1-yl)-6,7,8,9-tetrahydro-5H-pyrimido[4,5-d]azepine] was run?
**A.** < 1000 nM

**Q.** With `c1ccc(CN2CCc3ncnc(N4CCN(C5CCC5)CC4)c3CC2)cc1` [Compound 142, 7-benzyl-4-(4-cyclobutylpiperazin-1-yl)-6,7,8,9-tetrahydro-5H-pyrimido[4,5-d]azepine] as the compound, how does the Ki read?
**A.** < 1000 nM

**Q.** With `c1nc(N2CCN(C3CCC3)CC2)nc2c1CN(C1CCC1)CC2` [Compound 609, 6-cyclobutyl-2-(4-cyclobutylpiperazin-1-yl)-5,6,7,8-tetrahydropyrido[4,3-d]pyrimidine] as the compound, how does the Ki read?
**A.** < 1000 nM

**Q.** Which Ki does the source give for `c1nc(N2CCN(C3CCC3)CC2)nc2c1CN(CC1CCCCC1)CC2` [Compound 607, 2-(4-cyclobutylpiperazin-1-yl)-6-(cyclohexylmethyl)-5,6,7,8-tetrahydropyrido[4,3-d]pyrimidine] here?
**A.** < 1000 nM

**Q.** With `CCN1CCc2nc(N3CCN(C4CCC4)CC3)ncc2C1` [Compound 606, 2-(4-cyclobutylpiperazin-1-yl)-6-ethyl-5,6,7,8-tetrahydropyrido[4,3-d]pyrimidine] as the compound, how does the Ki read?
**A.** < 1000 nM

**Q.** For `CNC(=O)c1ccc(N2CCc3nc(N4CCN(C5CCC5)CC4)ncc3C2)nc1` [Compound 648, 6-[2-(4-cyclobutylpiperazin-1-yl)-7,8-dihydropyrido[4,3-d]pyrimidin-6(5H)-yl]-N-methylnicotinamide], which Ki is on record?
**A.** < 1000 nM

**Q.** `CC(=O)c1ccc(OCC(=O)N2CCc3ncnc(N4CCN(C5CCC5)CC4)c3CC2)cc1` [Compound 143, 1-(4-{2-[4-(4-cyclobutylpiperazin-1-yl)-5,6,8,9-tetrahydro-7H-pyrimido[4,5-d]azepin-7-yl]-2-oxoethoxy}phenyl)ethanone] was tested. Which Ki did it give?
**A.** < 1000 nM

**Q.** How did the Ki turn out when `CC(C)(C)N1CCN(c2ncnc3c2CCN(Cc2ccccc2)C3)CC1` [Compound 13, 7-benzyl-4-(4-tert-butylpiperazin-1-yl)-5,6,7,8-tetrahydropyrido[3,4-d]pyrimidine] was run?
**A.** < 1000 nM

Same assay, conditions: P2 membranes of Sf9 cells, 1 μM histamine as agonist; read-out: Ki in the assay of Example 7

**Q.** For `c1nc2c(c(N3CCN(C4CCC4)CC3)n1)CCN(CC1CCCCC1)CC2` [Compound 6, 4-(4-Cyclobutyl-piperazin-1-yl)-7-cyclohexylmethyl-6,7,8,9-tetrahydro-5H-pyrimido[3,4-d]azepine], which Ki is on record?
**A.** < 1000 nM

**Q.** How did the Ki turn out when `CC(=O)c1ccc(N2CCc3nc(N4CCN(C5CCC5)CC4)ncc3C2)cc1` [Compound 5, 1-{4-[2-(4-Cyclobutyl-piperazin-1-yl)-7,8-dihydro-5H-pyrido[4,3-d]pyrimidin-6-yl]-phenyl}-ethanone] was run?
**A.** < 1000 nM

**Q.** How did the Ki turn out when `c1nc(N2CCN(C3CCC3)CC2)nc2c1CCN(CC1CCCCC1)CC2` [Compound 9, 2-(4-Cyclobutyl-piperazin-1-yl)-7-cyclohexylmethyl-6,7,8,9-tetrahydro-5H-pyrimido[4.5-d]azepine] was run?
**A.** < 1000 nM

**Q.** How did the Ki turn out when `O=C(c1ccccc1)N1CCc2ncnc(N3CCN(C4CCC4)CC3)c2CC1` [Compound 8, [4-(4-Cyclobutyl-piperazin-1-yl)-5,6,8,9-tetrahydro-pyrimido[4,5-d]azepin-7-yl]-phenyl-methanone] was run?
**A.** < 1000 nM

Same assay, conditions: assay of Example 7; symbol "*" in column headed Ki; read-out: Ki

**Q.** Which Ki does the source give for `O=C(c1ccccc1)N1CCc2cnc(N3CCN(C4CCC4)CC3)nc2CC1` [Compound 183, 7-benzoyl-2-(4-cyclobutylpiperazin-1-yl)-6,7,8,9-tetrahydro-5H-pyrimido[4,5-d]azepine] here?
**A.** < 1000 nM

**Q.** With `CCN1CCN(c2ncc3c(n2)CCN(C2CCC2)CC3)CC1` [Compound 599, 7-cyclobutyl-2-(4-ethylpiperazin-1-yl)-6,7,8,9-tetrahydro-5H-pyrimido[4,5-d]azepine] as the compound, how does the Ki read?
**A.** < 1000 nM

**Q.** Which Ki does the source give for `CC1CCC[C@@H]2CN(c3ncc4c(n3)CCN(CC3CCOCC3)CC4)CCN12` (some centres unmarked) [Compound 597, 2-(6-methyloctahydro-2H-pyrido[1,2-a]pyrazin-2-yl)-7-(tetrahydro-2H-pyran-4-ylmethyl)-6,7,8,9-tetrahydro-5H-pyrimido[4,5-d]azepine] here?
**A.** < 1000 nM

**Q.** For `CNC(=O)c1ccc(N2CCN(c3ncc4c(n3)CCN(C3CCC3)CC4)CC2)nc1` [Compound 604, 6-[4-(7-cyclobutyl-6,7,8,9-tetrahydro-5H-pyrimido[4,5-d]azepin-2-yl]piperazin-1-yl]-N-methylnicotinamide], which Ki is on record?
**A.** < 1000 nM

**Q.** Which Ki does the source give for `c1nc(N2CCN(C3CCC3)CC2)nc2c1CCN(C1CCOCC1)CC2` [Compound 591, 2-(4-cyclobutylpiperazin-1-yl)-7-(tetrahydro-2H-pyran-4-yl)-6,7,8,9-tetrahydro-5H-pyrimido[4,5-d]azepine] here?
**A.** < 1000 nM

**Q.** `FC(F)(F)CN1CCN(c2ncc3c(n2)CCN(C2CCC2)CC3)CC1` [Compound 602, 7-cyclobutyl-2-[4-(2,2,2-trifluoroethyl)piperazin-1-yl]-6,7,8,9-tetrahydro-5H-pyrimido[4,5-d]azepine] was tested. Which Ki did it give?
**A.** < 1000 nM

**Q.** `CC(=O)N1CCN(c2ncc3c(n2)CCN(C2CCC2)CC3)CC1` [Compound 600, 2-(4-acetylpiperazin-1-yl)-7-cyclobutyl-6,7,8,9-tetrahydro-5H-pyrimido[4,5-d]azepine] was tested. Which Ki did it give?
**A.** < 1000 nM

**Q.** With `COCCN1CCc2cnc(N3CCN(C4CCC4)CC3)nc2CC1` [Compound 593, 2-(4-cyclobutylpiperazin-1-yl)-7-(2-methoxyethyl)-6,7,8,9-tetrahydro-5H-pyrimido[4,5-d]azepine] as the compound, how does the Ki read?
**A.** < 1000 nM

**Q.** For `FC(F)(F)CN1CCc2cnc(N3CCN(C4CCC4)CC3)nc2CC1` [Compound 592, 2-(4-cyclobutylpiperazin-1-yl)-7-(2,2,2-trifluoroethyl)-6,7,8,9-tetrahydro-5H-pyrimido[4,5-d]azepine], which Ki is on record?
**A.** < 1000 nM

**Q.** Which Ki does the source give for `FC1(F)CCC(CN2CCc3cnc(N4CCN(C5CCC5)CC4)nc3CC2)CC1` [Compound 594, 2-(4-cyclobutylpiperazin-1-yl)-7-[(4,4-difluorocyclohexyl)methyl]-6,7,8,9-tetrahydro-5H-pyrimido[4,5-d]azepine] here?
**A.** < 1000 nM

**Q.** `CC(C)(C)OC(=O)N1CCN(c2ncc3c(n2)CCN(C2CCC2)CC3)CC1` [Compound 601, tert-butyl 4-(7-cyclobutyl-6,7,8,9-tetrahydro-5H-pyrimido[4,5-d]azepin-2-yl)piperazine-1-carboxylate] was tested. Which Ki did it give?
**A.** < 1000 nM

**Q.** How did the Ki turn out when `CC1CCC[C@@H]2CN(c3ncc4c(n3)CCN(C3CCC3)CC4)CCN12` (some centres unmarked) [Compound 596, 7-cyclobutyl-2-(6-methyloctahydro-2H-pyrido[1,2-a]pyrazin-2-yl)-6,7,8,9-tetrahydro-5H-pyrimido[4,5-d]azepine] was run?
**A.** < 1000 nM

**Q.** How did the Ki turn out when `c1nc(N2CCN(C3CCC3)CC2)nc2c1CCN(C1CCC1)CC2` [Compound 590, 7-cyclobutyl-2-(4-cyclobutylpiperazin-1-yl)-6,7,8,9-tetrahydro-5H-pyrimido[4,5-d]azepine] was run?
**A.** < 1000 nM

**Q.** `CCN1CCN(c2ncc3c(n2)CCN(CC2CCOCC2)CC3)CC1` [Compound 598, 2-(4-ethylpiperazin-1-yl)-7-(tetrahydro-2H-pyran-4-ylmethyl)-6,7,8,9-tetrahydro-5H-pyrimido[4,5-d]azepine] was tested. Which Ki did it give?
**A.** < 1000 nM

**Q.** Which Ki does the source give for `CNC(=O)c1ccc(N2CCN(c3ncc4c(n3)CCN(CC3CCOCC3)CC4)CC2)nc1` [Compound 603, N-methyl-6-{4-[7-(tetrahydro-2H-pyran-4-ylmethyl)-6,7,8,9-tetrahydro-5H-pyrimido[4,5-d]azepin-2-yl]piperazin-1-yl}nicotinamide] here?
**A.** < 1000 nM
